Tests used:
Type in all cases: cell-based, human
GATA3 = GATA3 transcription factor mRNA expression, real-time PCR, in stimulated PBL; settings: PBL stimulated 72 hrs with anti-CD3/anti-CD28 in presence of agent; relative to stimulated PBL without agent
Protocol: (§1) CD4+CD45RA+naïve, CD4+CD45RA−memory cells were prepared as follows. A Buffy Coat from human peripheral blood was obtained from the Oklahoma Blood Institute and processed as follows. Blood was diluted 1:2 with PBS without Ca^++Mg^++. 30 ml diluted blood was overlaid onto 15 ml Ficoll. Tubes were spun for ˜30 minutes at 2000 rpm. The Buffy cell layer was harvested into 25 ml PBS and brought to a volume of 45 ml total. Tubes were then spun ˜10 minutes at […]. Tubes were finally combined and washed with PBS. Approximately 10 percent of the cell preparation was set aside (X-VIVO 15 media+10% FCS) and is referred to hereinafter as “PBL.”
(§2) Cells (i.e., PDL, CD4+ naive, and CD4+ memory cells), were plated in six well dishes at approximately 3-4×10^6 cells/well. Prior to plating, wells were coated with αCD3/αCD28 antibodies. This was achieved by incubating the wells in the presence of antibodies for approximately 2 hrs at 37° C. Wells were subsequently washed with PBS. Cells were plated in X-VIVO 15 with 10% FCS. […]
(§3) 2.5 μl Assay on Demand reagent (Applied Biosystems) were added to 25 μl TaqMan Master MiX™ and samples brought to a total volume of 50 μl with RNAse-free water. […] Reactants were detected using an Applied Biosystems QPCR instrument (i.e., ABI Program 7000 SDS Sequence Detection System). […] The relative expression of the markers in each cell type and at each time point was also determined. […]

Tbox21 = Tbox21 (TBX21) transcription factor mRNA expression, real-time PCR, in stimulated PBL; settings: PBL stimulated 72 hrs with anti-CD3/anti-CD28 in presence of agent; relative to stimulated PBL without agent
Protocol: as §1, §2, §3

FOXP3 = FOXP3 transcription factor mRNA expression, real-time PCR, in stimulated PBL; settings: PBL stimulated 72 hrs with anti-CD3/anti-CD28 in presence of agent; relative to stimulated PBL without agent
Protocol: as §1, §2, §3

[1] = tested on: peripheral blood lymphocytes (PBLs); experiment: Assay of cell proliferation of stimulated PBL; settings: PBL stimulated with anti-CD3/anti-CD28, 72 hours
Protocol: FIG. 3 graphically depicts the proliferation of peripheral blood lymphocytes (PBLs) at 72 hours post-stimulation with αCD3/αCD28 in the presence of the known immunomodulatory agents, rapamycin, cyclosporine, and Cellcept (MMF) (anti-proliferative agent). Proliferation is relative to that observed in control, stimulated PBL (in the absence of any added agent).
PBL were activated with anti-CD3 in combination with anti-CD28 in the presence or absence of the known immunomodulatory drugs including dexamethasone, rapamycin, cyclosporine A and Cellcept (antiproliferative agent) at the concentrations indicated. At 72 hours, RNA was prepared from the treated cells and the untreated controls. Real-time PCR was performed using cDNA from the RNA and using the primers and probes for the three transcription factors. The data are set forth in FIG. 2A-D. Dexamethasone is documented to result in a shift of in vivo immune responses towards characteristics recognized to be associated with Th2 cells when administered to both humans and animals. […] Rapamycin and cyclosporine are general immunosuppressants utilized to prevent allograft rejection in humans. Both drugs are known to utilize common cellular components. […] Cellcept is an anti-proliferative agent also used in organ transplantation. Its primary effect on the immune system is believed to be simple reduction of lymphocyte proliferation.

Th1 cells = experiment: [3H] thymidine proliferation assay of differentiated Th1 cells; settings: anti-CD3/CD-28 coated wells, 72 hrs with drug, [3H] thymidine incorporation
Protocol: (§4) Resting, fully differentiated Th1, Th2 and Treg were seeded in wells of a 96 well plate coated with anti-CD3 and CD-28. Cells (200,000 per well) were grown in the presence or absence of a known immunomodulatory drugs including rapamycin, cyclosporine A and Cellcept (MMF) (antiproliferative agent) at the concentrations indicated for 72 hrs prior to the addition of [^3H] thymidine. The cells were then incubated with [^3H] thymidine (0.5 μCi/well) for an additional 6-18 hrs and harvested. [^3H] thymidine incorporation was determined by liquid scintillation counting.

Th2 cells = experiment: [3H] thymidine proliferation assay of differentiated Th2 cells; settings: anti-CD3/CD-28 coated wells, 72 hrs with drug, [3H] thymidine incorporation
Protocol: as §4

Treg cells = experiment: [3H] thymidine proliferation assay of differentiated Treg cells; settings: anti-CD3/CD-28 coated wells, 72 hrs with drug, [3H] thymidine incorporation
Protocol: as §4

Th1 cytokines = experiment: Cytokine production by differentiated Th1 cells, multiplexed ELISA; settings: anti-CD3/CD-28 coated wells, 72 hrs with drug, supernatants
Protocol: (§5) Resting, fully differentiated Th1, Th2 and Treg were seeded in wells sof a 96 well plate coated with anti-CD3 and CD-28. Cells (200,000 per well) were grown in the presence or absence of a known immunomodulatory drugs including rapamycin, cyclosporine A and Cellcept (MMF) (antiproliferative agent) at the concentrations indicated for 72 hrs prior to the collection of supernatants for measurement of secreted cytokines. Cytokine measurement were made using a multiplexed ELISA assay (Pierce/Endogen Searchlight Assay).

Th2 cytokines = experiment: Cytokine production by differentiated Th2 cells, multiplexed ELISA; settings: anti-CD3/CD-28 coated wells, 72 hrs with drug, supernatants
Protocol: as §5

TGFβ by Treg cells = experiment: TGFβ production by differentiated Treg cells, multiplexed ELISA; settings: anti-CD3/CD-28 coated wells, 72 hrs with drug, supernatants
Protocol: as §5

Row | Molecule | effect on GATA3 (Th2 transcription factor) expression (GATA3) | effect on Tbox21/TBX21 (Th1 transcription factor) expression (Tbox21) | effect on FOXP3 (Treg transcription factor) expression (FOXP3) | effect on cell proliferation [1] | effect on proliferation of Th1 cells (Th1 cells) | effect on proliferation of Th2 cells (Th2 cells) | effect on proliferation (expansion) of Treg cells (Treg cells) | effect on Th1 cytokine production (Th1 cytokines) | effect on Th2 cytokine production (Th2 cytokines) | effect on production of TGFβ by Treg cells (TGFβ by Treg cells)
1 | COc1c(C)c2c(c(O)c1C/C=C(\C)CCC(=O)OCCN1CCOCC1)C(=O)OC2 [Cellcept] | did not affect | did not affect | did not affect | dose-dependent inhibition of proliferation | equally inhibited the expansion of all cell types in a dose dependent manner | equally inhibited the expansion of all cell types in a dose dependent manner | equally inhibited the expansion of all cell types in a dose dependent manner | does not suppress | does not suppress | does not suppress any cytokine measured except for TGFβ in T reg cells
2 | TGFβ | – | – | induced | – | – | – | – | – | – | –
3 | IL4: cytokine known to initiate the differentiation of Th2 cells (protein, UniProt P05112 25-153, looked up) Interleukin-4: HKCDITLQEIIKTLNSLTEQKTLCTELTVTDIFAASKNTTEKETFCRAATVLRQFYSHHEKDTRCLGATAQQFHRHKQLIRFLKRLDRNLWGLAGLNSCPVKEANQSTLENFLERLKTIMREKYSKCSS | clearly increased | – | – | – | – | – | – | – | – | –

From patent US20050048587A1, “Methods for identifying tolerance modulatory compounds and uses therefor” (TolerRx, Inc., priority 2003, published 2005)
